Measurements as given in patent publication US12024512B2, “Cocrystal” (TAKEDA PHARMACEUTICAL COMPANY LIMITED, priority 2016, dated 2024).
Values after ≈ are worked out from the molar mass of the structure shown.

Experiments:
Assay type in all cases: physicochemical
[1] = Solubility in aqueous solutions after shaking each crystal at 37° C. for 24 hr; conditions: thermodynamic from solid, 24 hr shaking
[2] = Slurry experiment: crystal form of residue after stirring in test solvent; conditions: about 25° C., 24 hr
Protocol: (§1) Powder X-ray diffraction measurement was performed using Cu-Kα radiation and measured by horizontal multipurpose X-ray diffraction system Ultima IV manufactured by Rigaku Corporation. Differential scanning calorimetric or thermogravimetric measurement was performed using DSC1/700/903-2 manufactured by Mettler Toledo or TGA/DSC1/LF/629-2 manufactured by Mettler Toledo and measured at temperature rise rate 5° C./min. Infrared spectrum was measured using Fourier transform infrared spectrophotometer Shimadzu IR Prestige-21 manufactured by Shimadzu Corporation and mounting Dura Sample IR II manufactured by Smiths Detection and by a total reflection method absorption measurement method at resolution 4 cm^−1. Raman spectroscopy was measured using RXN2 manufactured by Kaiser Optical Systems and a laser light source at excitation wavelength 1064 nm. Single crystal X-ray diffraction was measured using Cu-Kα radiation and curved imaging plate single crystal automatic X-ray structure analyzer R-AXIS RAPID II manufactured by Rigaku Corporation. Initial phase was determined by the direct method and the structure was refined by SHELXL-97. […] Intrinsic dissolution rate measurement was evaluated using a compression-molded disc of a crystal powder alone and in 20 mmoL/L sodium phosphate buffer (pH 6.8) containing 0.2% (w/v) sodium lauryl sulfate and by a rotating disc method (rotating speed: 100 rpm). Dissolution test was performed using a powder obtained by physically mixing a crystal powder and lactose in the same weight as the crystal powder and evaluated in Fasted State Simulated Intestinal Fluid (FaSSIF) at 37° C. by a rotating paddle method (paddle rotating speed: 50 rpm). The drug concentration of a solution was determined by liquid chromatography using Alliance HPLC system e2695 and detector 2789 manufactured by Waters (separation column: YMCPackPro C18 4.6 mm[…]×150 mm, temperature: 40° C., mobile phase: 20 mmol/L sodium phosphate buffer (pH 6.8)/acetonitrile=60/40 (v/v), flow rate: 1 mL/min, ultraviolet absorption detection wavelength: 240 nm). As slurry experiment, a test solvent was added to a crystal powder, the mixture was stirred at about 25° C. for 24 hr in suspension, the obtained residue was collected by filtration, and the crystal form was confirmed by powder X-ray diffraction measurement or Raman spectroscopy. In the recrystallization experiment, crystals were dissolved in ethanol, acetone, 2-propanol, tetrahydrofuran, methyl ethyl ketone, ethyl acetate, isopropyl acetate, anisole or isobutyl acetate at 55° C., filtered through a filter, allowed to cool to 5° C. or allowed to cool to 5° C. after adding n-heptane to the solution, and the crystal form of the obtained precipitate was confirmed by powder X-ray diffraction measurement or Raman spectroscopy.

[3] = Recrystallization experiment: crystal form of precipitate from organic solvent; conditions: dissolved at 55° C., cooled to 5° C.
Protocol: as §1

[4] = 2-propanol/n-heptane, n-heptane added
[5] = acetone/n-heptane, n-heptane added
[6] = anisole/n-heptane, n-heptane added
[7] = ethanol/n-heptane, n-heptane added
[8] = ethyl acetate/n-heptane, n-heptane added
[9] = methyl ethyl ketone/n-heptane, n-heptane added
[10] = tetrahydrofuran/n-heptane, n-heptane added

`CCc1cc2c(c(OCC(F)(F)F)c(C(=O)NC3CCN(C(=O)CO)CC3)n2C)c(=O)n1CC(=O)c1ccccc1` [anhydrous crystal of free form, 6-ethyl-N-[1-(hydroxyacetyl)piperidin-4-yl]-1-methyl-4-oxo-5-(2-oxo-2-phenylethyl)-3-(2,2,2-trifluoroethoxy)-4,5-dihydro-1H-pyrrolo[3,2-c]pyridine-2-carboxamide, reference compound] showed a solubility at 24 hr ([1]; Fasted State Simulated Intestinal Fluid (FaSSIF), FaSSIF) of 23.9 ± 0.1 µg/mL (≈ 41.5 µM), a solubility at 24 hr ([1]; Fed State Simulated Intestinal Fluid (FeSSIF), FeSSIF) of 88.7 ± 0.7 µg/mL (≈ 154 µM) and a solubility at 24 hr ([1]; Japanese Pharmacopoeia 1st fluid for dissolution test (JP1), simulated gastric fluid, JP1 (Japanese Pharmacopoeia 1st fluid for dissolution test)) of 20.6 ± 0.4 µg/mL (≈ 35.7 µM). The solubility at 24 hr ([1]; distilled water, concentration of API) was 21.5 ± 0.5 µg/mL (≈ 37.3 µM), the “Crystal form of residue after slurry experiment” value (“Crystal form of residue” below) ([2]; 2-propanol) was “free form (solvate)” and the “Crystal form of residue” value ([2]; acetone) was “free form (solvate)”. For the same molecule, the “Crystal form of residue” value ([2]; anisole) was “free form (solvate)”, the “Crystal form of residue” value ([2]; distilled water) was “free form (solvate)” and the “Crystal form of residue” value ([2]; ethanol) was “free form (solvate)”. For the same molecule, the “Crystal form of residue” value ([2]; ethyl acetate) was “free form (solvate)”, the “Crystal form of residue” value ([2]; methyl ethyl ketone) was “free form (solvate)” and the “Crystal form of residue” value ([2]; tetrahydrofuran) was “free form (solvate)”. The “Crystal form of precipitate obtained by recrystallization experiment” value (from here on “Crystal form of precipitate obtained”) ([3]; 2-propanol) was “free form (solvate)”, the “Crystal form of precipitate obtained” value [3, 4] was “free form (solvate)” and the “Crystal form of precipitate obtained” value ([3]; acetone) was “free form (solvate)”. For the same molecule, the “Crystal form of precipitate obtained” value [3, 5] was “free form (solvate)”, the “Crystal form of precipitate obtained” value ([3]; anisole) was “free form (solvate)” and the “Crystal form of precipitate obtained” value [3, 6] was “free form (solvate)”. For the same molecule, the “Crystal form of precipitate obtained” value ([3]; ethanol) was “free form (solvate)”, the “Crystal form of precipitate obtained” value [3, 7] was “free form (solvate)” and the “Crystal form of precipitate obtained” value ([3]; ethyl acetate) was “free form (solvate)”. The “Crystal form of precipitate obtained” value [3, 8] was “free form (solvate)”, the “Crystal form of precipitate obtained” value ([3]; isobutyl acetate) was “free form solvate)” and the “Crystal form of precipitate obtained” value ([3]; isopropyl acetate) was “free form (solvate)”. For the same molecule, the “Crystal form of precipitate obtained” value ([3]; methyl ethyl ketone) was “free form (solvate)”, the “Crystal form of precipitate obtained” value [3, 9] was “free form (solvate)” and the “Crystal form of precipitate obtained” value ([3]; tetrahydrofuran) was “free form (solvate)”. For the same molecule, the “Crystal form of precipitate obtained” value [3, 10] was “free form (solvate)”.

In the case of `CCc1cc2c(c(OCC(F)(F)F)c(C(=O)NC3CCN(C(=O)CO)CC3)n2C)c(=O)n1CC(=O)c1ccccc1.O=C(O)C(O)C(O)C(=O)O` [cocrystal with L-tartaric acid, cocrystal of 6-ethyl-N-[1-(hydroxyacetyl)piperidin-4-yl]-1-methyl-4-oxo-5-(2-oxo-2-phenylethyl)-3-(2,2,2-trifluoroethoxy)-4,5-dihydro-1H-pyrrolo[3,2-c]pyridine-2-carboxamide and L-tartaric acid], the “Crystal form of residue” value ([2]; 2-propanol) is reported as “cocrystal* + free form (solvate)”, the “Crystal form of residue” value ([2]; acetone) is reported as “cocrystal *” and the “Crystal form of residue” value ([2]; anisole) is reported as “cocrystal* + free form (solvate)”. The “Crystal form of residue” value ([2]; distilled water) was “cocrystal* + free form (solvate)”, the “Crystal form of residue” value ([2]; ethanol) was “cocrystal * + free form (solvate)” and the “Crystal form of residue” value ([2]; ethyl acetate) was “cocrystal* + free form (solvate)”. For the same molecule, the “Crystal form of residue” value ([2]; methyl ethyl ketone) was “cocrystal* + free form (solvate)”, the “Crystal form of residue” value ([2]; tetrahydrofuran) was “cocrystal* + free form (solvate)” and the “Crystal form of precipitate obtained” value ([3]; 2-propanol) was “cocrystal *”. For the same molecule, the “Crystal form of precipitate obtained” value [3, 4] was “cocrystal *”, the “Crystal form of precipitate obtained” value ([3]; acetone) was “free form (solvate)” and the “Crystal form of precipitate obtained” value [3, 5] was “cocrystal * + free form (solvate)”. The “Crystal form of precipitate obtained” value ([3]; anisole) was “no precipitate”, the “Crystal form of precipitate obtained” value [3, 6] was “free form (solvate)” and the “Crystal form of precipitate obtained” value ([3]; ethanol) was “free form (solvate)”. For the same molecule, the “Crystal form of precipitate obtained” value [3, 7] was “free form (solvate)”, the “Crystal form of precipitate obtained” value ([3]; ethyl acetate) was “free form (solvate)” and the “Crystal form of precipitate obtained” value [3, 8] was “cocrystal * + free form (solvate)”. For the same molecule, the “Crystal form of precipitate obtained” value ([3]; isobutyl acetate) was “cocrystal *”, the “Crystal form of precipitate obtained” value ([3]; isobutyl acetate/n-heptane, n-heptane added) was “cocrystal *” and the “Crystal form of precipitate obtained” value ([3]; isopropyl acetate) was “free form (solvate)”. For the same molecule, the “Crystal form of precipitate obtained” value ([3]; isopropyl acetate/n-heptane, n-heptane added) was “cocrystal *”, the “Crystal form of precipitate obtained” value ([3]; methyl ethyl ketone) was “free form (solvate)” and the “Crystal form of precipitate obtained” value [3, 9] was “cocrystal *”. For the same molecule, the “Crystal form of precipitate obtained” value ([3]; tetrahydrofuran) was “free form (solvate)” and the “Crystal form of precipitate obtained” value [3, 10] was “cocrystal *”.
